In ChEMBL document CHEMBL4359839, “The Significance of Chirality in Drug Design and Synthesis of Bitopic Ligands as D3 Receptor (D3R) Selective Agonists” (J Med Chem, 2019):

Tests used:
Homo sapiens [1] = organism: Homo sapiens; test: Selectivity ratio of Ki for displacement of [3H]-(R)-(+)-7-OH-DPAT from recombinant human D2L receptor expressed in HEK293 cell membranes to Ki for displacement of [3H]-(R)-(+)-7-OH-DPAT from recombinant human D3 receptor expressed in HEK293 cell membranes
[2] = Drug level in rat liver microsomes treated with trans-N-(2-(2-(((2S,5S)-2-(6-Aminopyridin-3-yl)-5-methylmorpholino)methyl)cyclopropyl)ethyl)-1H-indole-2-carboxamide assessed as metabolite formation at 10 uM measured after 60 mins in presence of NADPH by LC-HRMS analysis; assay type: ADME, Microsome
Homo sapiens [3] = organism: Homo sapiens; test: Selectivity ratio of Ki for displacement of [3H]-(R)-(+)-7-OH-DPAT from recombinant human D4.4 receptor expressed in HEK293 cell membranes to Ki for displacement of [3H]-(R)-(+)-7-OH-DPAT from recombinant human D3 receptor expressed in HEK293 cell membranes
D(2) dopamine receptor = D(2) dopamine receptor (Homo sapiens, UniProt P14416); test: Displacement of [3H]-(R)-(+)-7-OH-DPAT from recombinant human D2L receptor expressed in HEK293 cell membranes measured after 90 mins by microbeta scintillation counting analysis
D(2) dopamine receptor, sequence (P14416 whole entry): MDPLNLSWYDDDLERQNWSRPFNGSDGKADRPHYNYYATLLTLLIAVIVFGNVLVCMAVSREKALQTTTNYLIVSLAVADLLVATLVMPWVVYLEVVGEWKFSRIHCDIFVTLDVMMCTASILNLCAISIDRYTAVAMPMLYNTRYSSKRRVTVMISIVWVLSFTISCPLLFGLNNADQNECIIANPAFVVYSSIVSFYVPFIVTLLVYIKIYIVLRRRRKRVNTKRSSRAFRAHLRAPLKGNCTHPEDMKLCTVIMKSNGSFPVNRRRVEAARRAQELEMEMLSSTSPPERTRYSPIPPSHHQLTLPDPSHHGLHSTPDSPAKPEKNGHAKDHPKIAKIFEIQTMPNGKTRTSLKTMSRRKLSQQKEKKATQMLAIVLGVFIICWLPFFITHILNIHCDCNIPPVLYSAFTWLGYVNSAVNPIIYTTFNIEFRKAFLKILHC

D(3) dopamine receptor = D(3) dopamine receptor (Homo sapiens, UniProt P35462); test: Displacement of [3H]-(R)-(+)-7-OH-DPAT from recombinant human D3 receptor expressed in HEK293 cell membranes measured after 90 mins by microbeta scintillation counting analysis
D(3) dopamine receptor, sequence (P35462 whole entry): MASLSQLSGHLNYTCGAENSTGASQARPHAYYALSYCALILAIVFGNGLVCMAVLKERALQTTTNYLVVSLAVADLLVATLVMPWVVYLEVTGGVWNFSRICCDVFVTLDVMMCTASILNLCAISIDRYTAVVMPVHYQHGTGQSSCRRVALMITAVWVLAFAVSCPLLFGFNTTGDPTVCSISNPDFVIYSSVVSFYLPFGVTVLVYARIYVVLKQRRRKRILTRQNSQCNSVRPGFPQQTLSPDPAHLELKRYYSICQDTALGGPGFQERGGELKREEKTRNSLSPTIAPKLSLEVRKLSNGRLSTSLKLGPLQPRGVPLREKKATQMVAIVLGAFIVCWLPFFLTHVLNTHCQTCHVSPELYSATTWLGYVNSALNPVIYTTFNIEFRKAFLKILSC

D(4) dopamine receptor = target: T1, D(4) dopamine receptor (Homo sapiens, UniProt P21917); test: Displacement of [3H]-(R)-(+)-7-OH-DPAT from recombinant human D4.4 receptor expressed in HEK293 cell membranes measured after 90 mins by microbeta scintillation counting analysis
T1 sequence (P21917 whole entry): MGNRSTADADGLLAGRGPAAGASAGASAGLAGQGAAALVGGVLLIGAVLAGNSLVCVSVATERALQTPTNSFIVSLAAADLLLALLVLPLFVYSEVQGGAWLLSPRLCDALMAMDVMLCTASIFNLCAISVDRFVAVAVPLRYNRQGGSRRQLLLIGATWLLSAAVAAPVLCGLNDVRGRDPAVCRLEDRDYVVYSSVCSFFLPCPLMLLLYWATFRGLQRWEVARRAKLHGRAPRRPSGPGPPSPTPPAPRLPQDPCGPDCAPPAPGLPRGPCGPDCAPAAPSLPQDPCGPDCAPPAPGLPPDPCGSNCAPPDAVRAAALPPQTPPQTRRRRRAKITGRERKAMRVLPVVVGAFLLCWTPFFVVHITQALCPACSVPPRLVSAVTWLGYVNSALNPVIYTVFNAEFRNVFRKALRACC

Row | Compound | Ratio Ki (Homo sapiens [1]) | other results
1 | O=C(NCCCCNC1COc2ccc(O)cc2C1=O)c1cc2ccccc2[nH]1 (stereo in doubt; 19a) | 0.71 | 
2 | C[C@H]1CO[C@@H](c2ccc(N)nc2)CN1CCCCOc1ccc2c(c1)NC(=O)CC2 | 1.11 | 
3 | C[C@H]1CO[C@H](c2ccc(N)nc2)CN1CCCCOc1ccc2c(c1)NC(=O)CC2 | 0.11 | 
4 | CCCN1CCO[C@@H]2c3cc(OCCCCNC(=O)c4cc5cccnc5[nH]4)ccc3OC[C@H]21 | 3.12 | 
5 | CCCN1CCO[C@@H]2c3cc(OCCCCN4C(=O)c5ccccc5C4=O)ccc3OC[C@H]21 | 2.11 | 
6 | C[C@H]1CO[C@H](c2ccc(N)nc2)CN1CC1CC1CNC(=O)c1cc2ccccc2[nH]1 (mixture of isomers) [listing 1 of 2 here] | 0.213 | 
7 | O=C1CCc2ccc(OCCCCN3CCO[C@@H]4c5cc(O)ccc5OC[C@H]43)cc2N1 | 0.554 | 
8 | CC1=COC(c2ccc(N)nc2)CN1CC1CC1CCNC(=O)c1cc2ccccc2[nH]1 (stereo unspecified) |  | Drug metabolism [2]: Metabolite_Detected
9 | C[C@H]1CO[C@H](c2ccc(N)nc2)CN1C/C=C/COc1ccc2c(c1)NC(=O)CC2 | 0.289 | 
10 | CCCN1CCO[C@@H]2c3cc(OCCCCNC(=O)c4ccc5c(c4)Cc4ccccc4-5)ccc3OC[C@H]21 | 8.33 | 
11 | C[C@H]1CO[C@@H](c2ccc(N)nc2)CN1 | 5.52 | Drug metabolism [2]: Metabolite_Detected
12 | C[C@H]1CO[C@H](c2ccc(N)nc2)CN1 | 4.67 | 
13 | C[C@H]1CO[C@@H](c2ccc(N)nc2)CN1CC1CC1CNC(=O)c1cc2ccccc2[nH]1 (stereo in doubt; form 3) | 0.498 | 
14 | CCCN1CC(c2ccc(N)nc2)OC[C@@H]1C (stereo partly specified) | 9.41 | Ratio Ki (Homo sapiens [3]): 1.58
15 | C[C@H]1CO[C@H](c2ccc(N)nc2)CN1CC1CC1CNC(=O)c1cc2ccccc2[nH]1 (mixture of isomers) [listing 2 of 2 here] |  | Ki (D(2) dopamine receptor): 14.1 µM; Ki (D(3) dopamine receptor): 66.2 µM
16 | C[C@H]1CO[C@@H](c2ccc(N)nc2)CN1CC1CC1CNC(=O)c1cc2ccccc2[nH]1 (stereo in doubt; form 4) | 0.435 | 
17 | CCCN1CCO[C@@H]2c3cc(O)ccc3OC[C@H]21 | 12.1 | Ratio Ki (Homo sapiens [3]): 15.7

Row | Compound | Ratio Ki (Homo sapiens [1]) | other results
18 | C[C@H]1CO[C@@H](c2ccc(N)nc2)CN1C/C=C/COc1ccc2c(c1)NC(=O)CC2 | 0.297 | 
19 | CCCN1CCO[C@@H]2c3cc(OCCCCOc4ccc5c(c4)NC(=O)CC5)ccc3OC[C@H]21 | 6.35 | 
20 | Oc1ccc2c(c1)[C@H]1OCCN[C@@H]1CO2 | 10.5 | 
21 | CCCN1CCO[C@@H]2c3cc(OCCCCNC(=O)c4cc5ccccc5o4)ccc3OC[C@H]21 | 1.57 | 
22 | C[C@H]1COC(c2ccc(N)nc2)CN1CCCCOc1ccc2c(c1)NC(=O)CC2 (stereo partly specified) | 0.653 | Ratio Ki (Homo sapiens [3]): 18.6
23 | C[C@H]1CO[C@@H](c2ccc(N)nc2)CN1CC1CC1CNC(=O)c1cc2ccccc2[nH]1 (stereo in doubt; form 2) | 1.75 | 
24 | C[C@H]1CO[C@H](c2ccc(N)nc2)CN1CC1CC1CNC(=O)c1cc2ccccc2[nH]1 (stereo in doubt; form 1) | 0.431 | 
25 | O=C(NCCCCNC1COc2ccc(O)cc2C1=O)c1cc2ccccc2[nH]1 (stereo in doubt; 19b) | 0.808 | 
26 | CCCN(CCC)c1ccc(C2CN(CCC)[C@@H](C)CO2)cn1 (stereo partly specified) | 0.391 | Ki (D(4) dopamine receptor): > 100 µM
27 | CCCN1CCO[C@@H]2c3cc(OCCCCNC(=O)c4nc5ccccc5s4)ccc3OC[C@H]21 | 4.14 | 
28 | CCCN1CCO[C@@H]2c3cc(OCCCCNC(=O)c4ccc5scnc5c4)ccc3OC[C@H]21 | 4.3 | 
29 | C[C@H]1CO[C@@H](c2ccc(N)nc2)CN1CC1CC1CNC(=O)c1cc2ccccc2[nH]1 (stereo in doubt; form 1) | 0.182 | 
30 | CCCN1CCO[C@@H]2c3cc(OCCCCNC(=O)c4cc5ccccc5[nH]4)ccc3OC[C@H]21 | 6.3 | 
31 | CCc1cc(Cl)c(OC)c(N2CCN(CCCCOc3ccc4c(c3)NC(=O)CC4)CC2)c1 | 0.0455 | Ki (D(2) dopamine receptor): 0.00186 µM; Ki (D(3) dopamine receptor): 0.0409 µM
32 | C[C@H]1COC(c2cnc(N)c(O)c2)CN1CC1CC1CCNC(=O)c1cc2ccccc2[nH]1 (stereo partly specified) |  | Drug metabolism [2]: Metabolite_Detected
33 | C[C@H]1CO[C@H](c2ccc(N)nc2)CN1CC1CC1CNC(=O)c1cc2ccccc2[nH]1 (stereo in doubt; form 2) | 0.235 | 
